Results on 19 molecules are retold here after patent US20260317312A1, “ISOXAZOLIDINES AS RIPK1 INHIBITORS AND USE THEREOF” (GENZYME CORPORATION, priority 2023, published 2026).

By IC50 is commonly meant the concentration that inhibits the measured activity by half. Low values mean inhibition by little substance, high ones a need for much substance.

Assay [1] concerns the target T1, hRIPK1 (aa 1-375) fusion protein (Homo sapiens, UniProt Q13546).
T1 construct: hRIPK1 (aa 1-375) fusion protein
T1 sequence (Q13546 1-375): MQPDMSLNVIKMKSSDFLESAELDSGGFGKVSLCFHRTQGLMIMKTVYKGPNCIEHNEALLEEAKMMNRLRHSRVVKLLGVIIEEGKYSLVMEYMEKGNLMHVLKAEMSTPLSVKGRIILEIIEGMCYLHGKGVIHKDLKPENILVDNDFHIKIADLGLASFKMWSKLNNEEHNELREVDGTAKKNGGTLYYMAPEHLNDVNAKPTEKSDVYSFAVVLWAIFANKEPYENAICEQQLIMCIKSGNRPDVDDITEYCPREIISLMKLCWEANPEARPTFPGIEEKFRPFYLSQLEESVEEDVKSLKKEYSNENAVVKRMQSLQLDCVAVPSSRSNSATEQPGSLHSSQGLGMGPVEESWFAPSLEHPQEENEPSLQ
Description: Receptor-Interacting Protein Kinase 1 inhibition, ADP Glo assay (conversion of ATP to ADP due to autophosphorylation). Format: biochemical. As to conditions: ATP 50 μM, 30 min preincubation, 240 min incubation, room temperature, DMSO 1%. Here is the method: The catalytic activity of RIPK1 was measured by monitoring the conversion of Adenosine triphosphate (ATP) to Adenosine diphosphate (ADP) due to autophosphorylation using an ADP-Glo kinase kit (Promega, catalog no. V9104).
In detail, 2 μl recombinantly produced hRIPK1 (aa 1-375) fusion protein (end concentration 3.6 μg/ml) and 2 μl compound (end concentration 33300-1.69 nM; DMSO end concentration 1%) were incubated for 30 minutes at room temperature and then 2 μl ATP (ADP Glo kit, end concentration 50 μM) were added. After another 240 minutes incubation at room temperature, 5 μl Promega ADP-Glo reagent I was added to quench the reaction and deplete unconsumed ATP. After an incubation period of 30 minutes, 10 μl Promega ADP-Glo detection reagent II was added resulting in conversion of ADP to ATP, which generates a light-reaction between luciferase and luciferin. Luminescence was quantified after 30 minutes with a Pherastar FS (BMG LABTECH, Ortenberg).
The adjustment was obtained by nonlinear regression using the Levenberg Marquardt algorithm.
In general terms: ADP-Glo first removes unused ATP, then detects ADP through luciferase.

In another assay the test system is U937 cells. Description: Cellular assay in U937 cells to measure activity of RIPK1-inhibitors on cell death (necroptosis). Format: cell-based. To be noted: overnight (18 to 24 hrs), 37° C., MTS readout. The source says:
Upon TNF-Receptor I ligation, Ser/Thr kinase RIPK1 is recruited to a transient receptor complex I. Upon modification of RIPK1 which promotes activation of RIPK1, complex lib can form, that involves recruitment of RIPK3 and MLKL (mixed lineage-kinase domain-like protein) which then translocates from the cytosol to the plasma membrane to execute cell death (Cai, Z. et al, Nat. Cell Biol. (2014)16:55-65).
Cell death was quantified in 96 well plates by determination of the amount of live cell using a CellTiter 96 Aqueous reagent (Promega), a calorimetric method to measure the number of live cells by reducing tetrazolium compound [3-(4,5-dimethylthiazol-2-yl)-5-(3-carboxymethoxyphenyl)-2-(4-sulfophenyl)-2H-tetrazolium, inner salt; MTS] into formazan. Absorbance of formazan was read at 490 nm. The inhibitory activity of the test compound was quantified in a concentration response curve (CRC) experiment.
Compounds were obtained as 10 mM stock solutions and were diluted 1 to 10 volumes with DMSO to yield a 1 mM solution. From this solution 2 μl were diluted with 998 μl growth medium. 100 μl of 2 μM compound solution was further diluted sequentially with a dilution factor of 2.5 by adding 150 μl growth medium. A total of 10 concentrations were tested ranging from 10 μM to 0.26 nM or from 1 μM to 0.07 nM.
U937 cells were cultured in RPM11640 Glutamax and 10% heat inactivated FBS. 50 μl cell suspension containing 1×10^6 cells/ml supplemented with 50 μM zVAD.fmk (Benzyloxycarbonyl-Val-Ala-Asp (Ome) fluoromethylketone) and 100 ng/ml recombinant human TNFα were dispensed in each well of a 96-well plate. 50 μl of compound dilutions (described in Cellular assay in U937 cells) were added and the cell suspension incubated overnight (18 to 24 hrs) at 37° C., 5% CO2 in a humidified atmosphere (95% rH). High (no compound) and low control (no TNFα, zVAD.fmk) were tested with 7 replicates; all compound concentrations were tested in duplicates on each experimental plate.
CellTiter 96 Aqueous reagent was mixed (100 μl PMS (phenazine methosulfate) solution/2 ml MTS (3-(4,5-[…])-5-(3-carboxymethoxyphenyl)-2-(4-sulfophenyl)-2H-tetrazolium, inner salt) solution) and 20 μl were added per well. After 4 hrs incubation at 37° C. (5% CO2 95% rH) optical density was measured at 490 nm on a microplate reader (Tecan Infinite M1000).
The % inhibition is expressed as percentage of the maximal inhibition value obtained in the absence of TNFα/zVAD.fmc.

Setting [2] is: Homo sapiens, U-937, TNFα/zVAD.fmk induced cell death (necroptosis).
[3] abbreviates: TNFα/zVAD.fmk induced cell death (necroptosis).

Consider `N#Cc1cc(F)cc(N[C@H]2CC[C@@H](C(=O)N3OCC[C@H]3c3cc(F)cc(C#N)c3)CC2)c1` [Compound 39, cis-3-((S)-2-(4-((3-cyano-5-fluorophenyl)amino)cyclohexane-1-carbonyl)isoxazolidin-3-yl)-5-fluorobenzonitrile], for which the IC50 worked out at 111 nM in assay [1] and 401 nM in the assay with U937 cells (setting [2]).
For `N#Cc1cc(F)cc([C@@H]2CCON2C(=O)[C@H]2CC[C@@H](Oc3ccc(F)c(C#N)c3)CC2)c1` [Compound 82, cis-5-((4-((S)-3-(3-cyano-5-fluorophenyl)isoxazolidine-2-carbonyl)cyclohexyl)oxy)-2-fluorobenzonitrile] the same measures were 44 nM and 385 nM.
For `N#Cc1cc(F)cc(O[C@H]2C[C@@H](C(=O)N3OCC[C@H]3c3cc(F)cc(F)c3)C2)c1` [Compound 61, cis-3-(3-((S)-3-(3,5-difluorophenyl)isoxazolidine-2-carbonyl)cyclobutoxy)-5-fluorobenzonitrile] the same measures were 54 nM and 126 nM.
For `CN1CC(=O)N(c2ccc(Cl)c(OC[C@H]3CC[C@H](C(=O)N4OCC[C@H]4c4cncc(C#N)c4)CC3)c2)C1=O` [Compound 88, trans-5-((S)-2-(4-((2-chloro-5-(3-methyl-2,5-dioxoimidazolidin-1-yl)phenoxy)methyl)cyclohexane-1-carbonyl)isoxazolidin-3-yl)nicotinonitrile] the same measures were 47 nM and 458 nM.
Regarding `N#Cc1cc(O[C@H]2C[C@H](C(=O)N3OCC[C@H]3c3cc(F)cc(F)c3)C2)ccc1F` [Compound 51, trans-5-(3-((S)-3-(3,5-difluorophenyl)isoxazolidine-2-carbonyl)cyclobutoxy)-2-fluorobenzonitrile], the IC50 in assay [1] was determined as 21 nM; in the assay on U937 cells (setting [2]) it was 6 nM.
The matching figures for `C[C@]1(C(=O)N2OCC[C@H]2c2cncc(C#N)c2)C[C@@H](Nc2nccc(C(N)=O)n2)C1` [Compound 7, cis-2-((3-((S)-3-(5-cyanopyridin-3-yl)isoxazolidine-2-carbonyl)-3-methylcyclobutyl)amino)pyrimidine-4-carboxamide]: 23 nM and 336 nM.
Take `CN1CC(=O)N(c2ccc(Cl)c(OC[C@H]3CC[C@H](C(=O)N4OCC[C@H]4c4cc(F)cc(F)c4)CC3)c2)C1=O` [Compound 63, trans-3-(4-chloro-3-((4-((S)-3-(3,5-difluorophenyl)isoxazolidine-2-carbonyl)cyclohexyl)methoxy)phenyl)-1-methylimidazolidine-2,4-dione]: the IC50 is 44 nM in assay [1] and 45 nM in the assay on U937 cells (setting [2]).
For `N#Cc1cc(F)cc([C@@H]2CCON2C(=O)[C@H]2CC[C@H](COc3ccc(F)c(C#N)c3)CC2)c1` [Compound 44, trans-5-((4-((S)-3-(3-cyano-5-fluorophenyl)isoxazolidine-2-carbonyl)cyclohexyl)methoxy)-2-fluorobenzonitrile] the same measures were 27 nM and 5 nM.
Regarding `N#Cc1cc(F)cc(NC[C@H]2CC[C@H](C(=O)N3OCC[C@H]3c3cc(F)cc(C#N)c3)CC2)c1` [Compound 38, trans-3-((S)-2-(4-(((3-cyano-5-fluorophenyl)amino)methyl)cyclohexane-1-carbonyl)isoxazolidin-3-yl)-5-fluorobenzonitrile], the IC50 in assay [1] was found to be 27 nM; with U937 cells (setting [2]), 22 nM.
Regarding `N#Cc1cc(F)cc([C@@H]2CCON2C(=O)C2CCC(COc3cc(C(N)=O)ncn3)C2)c1` (single isomer, unassigned) [Compound 115], the IC50 in assay [1] is 53 nM; in the assay on U937 cells (setting [3]), 842 nM.
For the molecule `N#Cc1ccnc(N[C@H]2C[C@@H](C(=O)N3OCC[C@H]3c3cccc(F)c3)C2)n1` [Compound 16, cis-2-((3-((S)-3-(3-fluorophenyl)isoxazolidine-2-carbonyl)cyclobutyl)amino)pyrimidine-4-carbonitrile], the figures for the IC50 (in assay [1]; in the assay on U937 cells (setting [2])) were 24 nM and 123 nM, respectively.
For `Cc1nnc(C)n1-c1ccc(F)c(OC[C@H]2CC[C@H](C(=O)N3OCC[C@H]3c3cc(F)cc(F)c3)CC2)c1` [Compound 64, trans-((S)-3-(3,5-difluorophenyl)isoxazolidin-2-yl)(4-((5-(3,5-dimethyl-4H-1,2,4-triazol-4-yl)-2-fluorophenoxy)methyl)cyclohexyl)methanone] the same measures were 56 nM and 529 nM.
On to `N#Cc1cc(F)cc([C@@H]2CCON2C(=O)[C@H]2CC[C@H](CNc3ccc(F)c(C#N)c3)CC2)c1` [Compound 35, trans-5-(((4-((S)-3-(3-cyano-5-fluorophenyl)isoxazolidine-2-carbonyl)cyclohexyl)methyl)amino)-2-fluorobenzonitrile], for which the figures for the half-maximal inhibitory concentration (IC50) (in assay [1]; in the assay with U937 cells (setting [3])) were 18 nM and 4 nM, respectively.
In the case of `N#Cc1cc(NC[C@H]2CC[C@H](C(=O)N3OCC[C@H]3c3ccc(Cl)cc3)CC2)ncn1` [Compound 15, trans-6-(((4-((S)-3-(4-chlorophenyl)isoxazolidine-2-carbonyl)cyclohexyl)methyl)amino)pyrimidine-4-carbonitrile], the IC50 in assay [1] was 9 nM; with U937 cells (setting [2]) it was 192 nM.
With `O=C([C@H]1C[C@@H](n2cnc3cc(F)ccc32)C1)N1OCC[C@H]1c1cc(F)cc(F)c1` [Compound 69, cis-((S)-3-(3,5-difluorophenyl)isoxazolidin-2-yl)(3-(5-fluoro-1H-benzo[d]imidazol-1-yl)cyclobutyl)methanone], the IC50 was determined as 26 nM in assay [1] and 35 nM with U937 cells (setting [2]).
`NC(=O)c1cc(OCC2CCCC(C(=O)N3OCC[C@H]3c3cc(F)cc(F)c3)CC2)ncn1` (single isomer, unassigned; stereoisomer 2) [Compound 123]: the IC50 came to 14 nM in assay [1] and 24 nM with U937 cells (setting [3]).
As to `N#Cc1cc(F)cc([C@@H]2CCON2C(=O)[C@H]2CC[C@H](COc3cccc(S(N)(=O)=O)c3)CC2)c1` [Compound 77, trans-3-((4-((S)-3-(3-cyano-5-fluorophenyl)isoxazolidine-2-carbonyl)cyclohexyl)methoxy)benzenesulfonamide], the results for the IC50 (in assay [1]; with U937 cells (setting [2])) were 53 nM and 48 nM, respectively.
The matching figures for `COc1cncc([C@@H]2CCON2C(=O)[C@H]2CC[C@H](COc3cccc(C(N)=O)c3)CC2)n1` [Compound 129, trans-3-[[4-[(3S)-3-(6-methoxypyrazin-2-yl)isoxazolidine-2-carbonyl]cyclohexyl]methoxy]benzamide]: 11 nM and 28 nM.
For `NC(=O)c1ccc(F)c(OC[C@H]2CC[C@H](C(=O)N3OCC[C@H]3c3cnccn3)CC2)c1` [Compound 111, trans-4-fluoro-3-[[4-[(3S)-3-pyrazin-2-ylisoxazolidine-2-carbonyl]cyclohexyl]methoxy]benzamide] the same measures were 48 nM and 153 nM.
